Patent US8143241B2, “DNA damage repair inhibitors for treatment of cancer” (Kudos Pharmaceuticals Limited, priority 2003, dated 2012)

Tests used:
[1] = test system: wild-type, Fanca−/−, Fancc−/− and Fanca−/−c−/− cells; assay: γH2AX foci formation in wild-type and FA fibroblasts; type: cell-based, mouse; conditions: 48 hours exposure
PARP-3 = PARP-3 (Homo sapiens, UniProt Q9Y6F1); assay: Selectivity: PARP-3 inhibition; type: biochemical; conditions: at concentrations up to 1 μM
[2] = test system: Brca1 and Brca2 deficient cells; assay: Mitotic chromosome analysis; type: cell-based, mouse; conditions: 24 hours treatment
Procedure: ES cells were seeded onto gelatin, treated for 24 hours with chemical inhibitors, followed by colcemid treatment for 1 hour. Cells were harvested, fixed, dropped onto slides, dried and stained with DAPI before chromosome analysis under a microscope.

[3] = test system: chinese hamster ovary cells deficient in Brca2 (V-C8); assay: Clonogenic assay, Brca2 deficient chinese hamster ovary cells (V-C8) vs Brca2-complemented derivative; type: cell-based; conditions: Brca2 deficient CHO cells vs complemented derivative
Description: VC8 cells and the mouse Brca2 BAC complemented derivatives were as described in M. Kraakman-van der Zwet et al., Mol Cell Biol 22, 669-79 (2002)). ES cells defective in Brca2 function have been described previously (Tutt et al. (2002) EMBO Rep 3, 255-60). The construction of ES cells defective in Brca1 will be described elsewhere but have previously been validated (Foray et al. (2003) Embo J 22 2860-71). HBL100 cells were transfected with a pSUPER BRCA1 RNAi plasmid and selected with geneticin for 3 weeks. Clones were selected on the basis of their BRCA1 expression, as analysed by Northern blot.
(§1) For measurement of sensitivity to chemical inhibitors, cell cultures e.g. ES cells or mouse embryonic fibroblasts, in exponential growth were trypsinised and seeded at various densities in 6-well plates onto confluent monolayer of Mitomycin C (MMC) inactivated mouse embryonic fibroblasts and, where appropriate, treated with inhibitors after 18 h. For continuous exposure, cells were re-fed every 4 days with fresh medium and inhibitor. For timed exposures, inhibitor was added for the specified period then cells were washed and re-fed with fresh medium. After 10-14 days, cells were washed with PBS, fixed in methanol and stained with crystal violet. Colonies containing greater than approximately 50 cells were counted. Experiments were performed at least three times in triplicate.

PARP-2 = PARP-2 (Homo sapiens, UniProt Q9UGN5); assay: Inhibition of poly(ADP-ribose) polymerase activity of PARP-2; type: biochemical
Sequence of PARP-2 (Q9UGN5 whole entry): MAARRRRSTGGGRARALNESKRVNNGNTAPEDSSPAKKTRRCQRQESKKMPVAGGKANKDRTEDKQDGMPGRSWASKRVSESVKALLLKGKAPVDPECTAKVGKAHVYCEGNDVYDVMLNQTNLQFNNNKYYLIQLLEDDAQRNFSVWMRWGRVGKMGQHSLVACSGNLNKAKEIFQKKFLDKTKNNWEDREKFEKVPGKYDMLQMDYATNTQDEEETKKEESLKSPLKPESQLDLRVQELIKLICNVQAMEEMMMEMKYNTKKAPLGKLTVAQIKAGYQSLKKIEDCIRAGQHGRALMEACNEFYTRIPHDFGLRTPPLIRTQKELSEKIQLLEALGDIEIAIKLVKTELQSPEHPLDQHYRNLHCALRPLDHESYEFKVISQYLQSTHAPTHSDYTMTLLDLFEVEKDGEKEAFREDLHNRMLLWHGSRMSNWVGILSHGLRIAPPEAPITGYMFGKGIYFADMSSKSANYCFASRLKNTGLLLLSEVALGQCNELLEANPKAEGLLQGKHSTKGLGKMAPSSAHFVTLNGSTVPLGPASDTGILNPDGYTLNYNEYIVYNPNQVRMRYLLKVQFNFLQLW

Brca1 deficient ES cells = assay: Clonogenic assay, continuous exposure, Brca1 deficient ES cells; type: cell-based, mouse
Procedure: as §1

[4] = test system: Brca2 deficient VC8 cells; assay: Neutral comet assay, Brca2 deficient VC8 cells; type: cell-based, chinese hamster; conditions: 30-hour exposure to 1 μM
Procedure: VC8 and VC8-BAC cells were plated 24 hours prior to treatment with 1 μM KU0058684 for 30 hours. All further work was carried out in the dark. Cells were washed with and scraped into PBS prior to Comet analysis as described (Lemay and Wood, 1999). Cells suspended in LMP agarose (0.5% in PBS) were spread onto Comet slides (Trevigen, Gaithersburg) and placed at 4 C until set, prior to lysis for 45 mins in 2.5M NaCl, 100 mM EDTA, 10 mM Tris Base, 1% sodium lauryl sarcosinate, 0.01% Triton X-100. Slides were transferred to TBE for 5 mins prior to electrophoresis at 18V for 15 mins. Slides were then fixed in 100% ethanol for 5 mins and air dried before the addition of SYBR green dye and visualisation by epifluorescence using fluorescien filters (Nikon). Comets were analysed using the Comet software module of the Lucia G imaging package as supplied by Nikon. 50 comets per data point were examined for each of three independent experiments and the mean tail moment calculated.

[5] = test system: pSUPER-CFP-CONTROL transfected HeLa cells; assay: Clonogenic survival, control transfected HeLa cells; type: cell-based, human; conditions: constant exposure 12-14 days, read-out: SF50 (the source's name)
Description: Clonogenic survival curves of transfected HeLa cells under constant exposure to a range of concentrations of PARP inhibitor (KU0058684) for 12-14 days. […] SF50 for pSUPER-CFP-CONTROL transfected cells is >1×10^−5 M and is 1×10^−6 M for pSUPER-CFP-17/19/23 transfected cells.
HeLa cells were transfected using FuGene (Roche, USA) according to the manufacturers instructions. For clonogenic survival assays, cells were co-transfected in 6 well plates with pSUPER and a vector expressing blasticidin resistance (pEF-Bsd, Invitrogen, USA) at a ratio of 10:1 (pSUPER: pEF-Bsd). Twenty-four hours after transfection, cells were plated into replica plates and this was followed by treatment with PARP inhibitors and blasticidin 48 hours post transfection.

Brca2 deficient ES cells = assay: Clonogenic assay, continuous exposure, Brca2 deficient ES cells; type: cell-based, mouse
Procedure: as §1

HeLa cells = assay: Cell viability, HeLa cells exposed to PARP inhibitor and caffeine; conditions: 1 mM Caffeine plus KU0058684
Description: Error bars represent standard errors of the mean.
Caffiene was used to determine whether loss of ATM and ATR dependent DNA signalling pathways would induce sensitivity to PARP inhibition.

[6] = test system: Brca1 or Brca2 deficient cells; assay: Rad51 focus formation, Brca1 or Brca2 deficient ES cells; type: cell-based, mouse; conditions: 48 hours
Procedure: ES cells were cultured for 48 h in various concentrations of PARP inhibitor fixed in 4% paraformaldehyde in PBS and permeabilised with 0.2% Triton X100 in PBS. Cells were stained with a 1:100 dilution of rabbit anti-Rad51 ployclonal antibody (Ab 551922, BD-Pharmingen, Oxford, UK). After washing, the primary antibody was visualised with Alexa Fluor-555 goat anti-rabbit IgG (Alexa) and nuclei with TO-PRO-3 iodide (Molecular Probes). Rad51 foci and γH2Ax foci were visualised with and quantified using a Leica TCS-SP2 confocal microscope.
Wild-type, and Brca1 and Brca2 defective ES cells were exposed to differing concentrations of KU0058684 for 48 hours. Cells were then fixed and stained for RAD51 foci as described by Tarsounas (Tarsounas M et al Oncogene. 2003 22(8): 1115-23).

[7] = test system: Fancd2−/−, Fanca−/−, Fancc−/− and Fanca−/−c−/− fibroblasts; assay: Clonogenic survival, Fanconi anaemia mouse fibroblasts; type: cell-based; conditions: continuous exposure 12-14 days
Procedure: Mouse fibroblasts from wild-type, Fancd2^−/−, Fanca^−/−, Fancc^−/− and Fanca^−/−c^−/− animals were obtained from the Fanconi Anaemia Cell Repository, Oregon Health and Science University. These cells were maintained in DMEM, supplemented with FCS (10% v/v), glutamine and antibiotics. RAD54 and RAD52 Embryonic Stem (ES) cells were grown in DMEM, supplemented with FCS (15% v/v), glutamine, antibiotics, non-essential amino acids, 2-mercaptoethanol and Leukemia inhibitory Factor. HeLa cells (CCL-2) were obtained from ATCC (USA) and were maintained in DMEM, supplemented with FCS (10% v/v), glutamine and antibiotics.
as §1

Sequence of PARP-3 (Q9Y6F1 whole entry, species assumed): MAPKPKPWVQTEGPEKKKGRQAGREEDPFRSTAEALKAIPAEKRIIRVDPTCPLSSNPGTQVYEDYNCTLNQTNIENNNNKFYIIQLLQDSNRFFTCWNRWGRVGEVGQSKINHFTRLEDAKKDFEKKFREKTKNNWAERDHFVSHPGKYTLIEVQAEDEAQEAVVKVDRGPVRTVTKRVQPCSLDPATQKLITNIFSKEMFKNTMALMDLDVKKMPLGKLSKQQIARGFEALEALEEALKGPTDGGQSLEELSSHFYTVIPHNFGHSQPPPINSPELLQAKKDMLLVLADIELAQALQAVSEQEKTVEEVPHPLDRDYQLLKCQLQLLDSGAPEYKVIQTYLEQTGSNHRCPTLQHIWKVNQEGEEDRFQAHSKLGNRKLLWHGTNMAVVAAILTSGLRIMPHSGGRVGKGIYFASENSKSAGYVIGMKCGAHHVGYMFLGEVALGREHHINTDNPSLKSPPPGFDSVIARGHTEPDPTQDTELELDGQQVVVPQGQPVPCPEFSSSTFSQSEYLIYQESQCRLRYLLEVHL

O=C1CCC(=O)N1c1cc(Cc2n[nH]c(=O)c3ccccc23)ccc1F [KU0058684]
γH2AX foci [1]: induction of γH2AX foci in all cells | inhibition of PARP-3 (PARP-3): do not inhibit | mitotic chromosome aberrations [2]: frequent major aberrations | enhanced sensitivity compared to a Brca2-complemented derivative [3]: greater than 1000 fold | inhibition of poly(ADP-ribose) polymerase activity of PARP-1 and PARP-2 (PARP-2): potent and specific inhibitors | IC50 (Brca1 deficient ES cells; Brca1 deficient ES cells, continuous exposure, read-out: SF50 (dosage at which 50% of cells survived)): 0.035 µM | enhanced sensitivity compared to wild-type (Brca1 deficient ES cells; Brca1 mutant cells vs wild-type): 57 fold | sensitivity of Brca1 deficient cells compared to otherwise isogenic cells (Brca1 deficient ES cells; clonogenic assay): extremely sensitive | increase in the tail moment [4]: 4.7 fold | IC50 [5]: > 10 µM | IC50 (Brca2 deficient ES cells; Brca2 deficient ES cells, continuous exposure, read-out: SF50 (dosage at which 50% of cells survived)): 0.015 µM | enhanced sensitivity compared to wild-type (Brca2 deficient ES cells; Brca2 mutant cells vs wild-type): 133 fold | sensitivity of Brca2 deficient cells compared to otherwise isogenic cells (Brca2 deficient ES cells; clonogenic assay): extremely sensitive | sensitivity of HeLa cells to PARP inhibitor with caffeine (HeLa cells): increased sensitivity | Rad51 foci formation [6]: no foci were induced | sensitivity of FA gene deficient fibroblasts compared to wild-type cells [7]: results in sensitivity
